Where two headings read alike, the source gives them in different places.
System: phospho-serine 2056 DNA-PK in HCT116 cells
Test: DNA-PK phosphorylation at serine 2056 (cellular), ELISA in bleomycin-treated HCT116 cells
Type: cell-based
Settings: read-out: IC50 pDNA-PK
How it was run: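 Test compounds and bleomycin (10 μM) are added to adherent HCT116 cells for 6 h. Detection uses an HRP-based chemiluminescent ELISA, with phospho-DNA-PK signals standardised to total protein.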

[1] = Homo sapiens, HCT-116, phospho-serine 2056 DNA-PK, bleomycin-treated HCT116 cells
[2] = Homo sapiens, HCT-116, cellular DNA-PK phosphorylation at serine 2056, HCT116 cells
[3] = Homo sapiens, HCT-116, 6 h, cellular, HCT116 cells, 10 μM bleomycin, six hours
[4] = cellular DNA-PK phosphorylation at serine 2056, HCT116 cells

Compound: Cc1cnc(C(C(N)=O)c2ccc(F)c(-c3ncnc4cc(N5CCOCC5)ccc34)c2)c(C)n1 (stereo not shown) [Example 318, 2-(3,5-Dimethyl-pyrazin-2-yl)-2-[4-fluoro-3-(7-morpholin-4-yl-quinazolin-4-yl)-phenyl]acetamide]
- IC50 [1]: 10 to 30 µM

Compound: NC(=O)c1cncc(C(C(N)=O)c2ccc(F)c(-c3ncnc4cc(N5CCOCC5)ccc34)c2)n1 (stereo not shown) [Example 292, 6-{Carbamoyl-[4-fluoro-3-(7-morpholin-4-yl-quinazolin-4-yl)-phenyl]methyl}-pyrazine-2-carboxylic acid amide]
- IC50 [1]: 10 to 30 µM

Compound: [2H]C1([2H])OC([2H])([2H])C([2H])([2H])N(c2ccc3c(-c4cc([C@H](O)c5nccnc5C)ccc4F)ncnc3c2)C1([2H])[2H] [Example 243, (S)-[4-Fluoro-3-[7-(2,2,3,3,5,5,6,6-octadeuterio-morpholin-4-yl)quinazolin-4-yl]phenyl]-(3-methylpyrazin-2-yl)methanol]
- IC50 (phospho-serine 2056 DNA-PK, bleomycin-treated HCT116 cells): 0.5 to 5 µM

Compound: COc1ccc(C(O)c2cc(-c3ncnc4cc(N5CCOCC5)ccc34)ccc2Cl)nn1 (stereo not shown) [Example 458, [2-Chloro-5-(7-morpholin-4-yl-quinazolin-4-yl)-phenyl]-(6-methoxy-pyridazin-3-yl)-methanol]
- IC50 [2]: < 0.5 µM

Compound: OC(c1ccc(F)c(-c2ncnc3cc(N4CCOCC4)ccc23)c1)c1ncccc1Cl (stereo not shown) [Example 465, (3-Chloro-pyridin-2-yl)-[4-fluoro-3-(7-morpholin-4-yl-quinazolin-4-yl)-phenyl]methanol]
- IC50 [2]: < 0.5 µM

Compound: COc1ccc([C@@H](O)c2ccc(F)c(-c3ncnc4cc(N5CCOCC5)ccc34)c2)nn1 [Example 72, (S)-[4-Fluoro-3-(7-morpholin-4-yl-quinazolin-4-yl)phenyl]-(6-methoxypyridazin-3-yl)methanol]
- IC50 [3]: 0.5 to 5 µM

Compound: NC(=O)C(c1cccnc1)c1cc(-c2ncnc3cc(N4CCOCC4)ccc23)c(F)cc1Cl (stereo not shown) [Example 293, 2-[2-Chloro-4-fluoro-5-(7-morpholin-4-yl-quinazolin-4-yl)-phenyl]-2-pyridin-3-ylacetamide]
- IC50 [1]: 5 to 10 µM

Compound: OC(c1ccc(F)c(-c2ncnc3cc(N4CCOCC4)ccc23)c1)c1ncnc2sccc12 (stereo not shown) [Example 437, [4-Fluoro-3-(7-morpholin-4-yl-quinazolin-4-yl)-phenyl]thieno[2,3-d}-pyrimidin-4-yl-methanol]
- IC50 [2]: < 0.5 µM

Compound: COc1cncnc1C(O)c1cc(-c2ncnc3cc(N4CCOCC4)ccc23)ccc1Cl (stereo not shown) [Example 408, [2-Chloro-5-(7-morpholin-4-yl-quinazolin-4-yl)-phenyl]-(5-methoxy-pyrimidin-4-yl)-methanol (Ena 2)]
- IC50 [2]: 0.5 to 5 µM

Compound: COc1ccnnc1C(O)c1cc(-c2ncnc3cc(N4CCOCC4)ccc23)c(F)cc1Cl (stereo not shown) [Example 3, [2-Chloro-4-fluoro-5-(7-morpholin-4-yl-quinazolin-4-yl)phenyl]-(4-methoxy-pyridazin-3-yl)methanol]
- IC50 [3]: 0.5 to 5 µM

Compound: Cc1nc(C(O)c2cnc(F)c(-c3ncnc4cc(N5CCOCC5)ncc34)c2)sc1C (stereo not shown) [Example 203, (4,5-Dimethyl-thiazol-2-yl)-[6-fluoro-5-(7-morpholin-4-yl-pyrido[4,3-d}-pyrimidin-4-yl)-pyridin-3-yl]-methanol]
- IC50 (phospho-serine 2056 DNA-PK, bleomycin-treated HCT116 cells, class symbols A-D): 10 to 30 µM

Compound: OC(c1ccc(F)c(-c2ncnc3cc(N4CCOCC4)ccc23)c1)c1ncnc2ccoc12 (stereo not shown) [Example 471, [4-Fluoro-3-(7-morpholin-4-yl-quinazolin-4-yl)-phenyl]furo[3,2-d}-pyrimidin-4-yl-methanol]
- IC50 [4]: < 0.5 µM

Compound: OC(c1cc(-c2ncnc3cc(N4CCOCC4)ccc23)ccc1Cl)c1ncnc2ccsc12 (stereo not shown) [Example 89, [2-Chloro-5-(7-morpholin-4-yl-quinazolin-4-yl)-phenyl]thieno[3,2-d}-pyrimidin-4-ylmethanol]
- IC50 [3]: < 0.5 µM

Compound: COc1cnc(C(O)c2ccc(F)c(-c3ncnc4cc(N5CCOCC5)ccc34)c2)c(Br)c1 (stereo not shown) [Example 473, (3-bromo-5-methoxy-pyridin-2-yl)-[4-fluoro-3-(7-morpholin-4-yl-quinazolin-4-yl)-phenyl]methanol]
- IC50 [2]: < 0.5 µM

Compound: OC(c1ccc(F)c(-c2ncnc3cc(N4CCOCC4)ccc23)c1)c1nccnc1N1CCCC1 (stereo not shown) [Example 14, [4-Fluoro-3-(7-morpholin-4-yl-quinazolin-4-yl)phenyl]-(3-pyrrolidin-1-yl-pyrazin-2-yl)methanol]
- IC50 [3]: 0.5 to 5 µM

Compound: COc1ccnnc1C(O)c1ccc(F)c(-c2ncnc3cc(N4CCOCC4)ccc23)c1 (stereo not shown) [Example 18, [4-Fluoro-3-(7-morpholin-4-yl-quinazolin-4-yl)phenyl]-(4-methoxy-pyridazin-3-yl)methanol]
- IC50 [3]: 0.5 to 5 µM

Compound: OC(c1ccc(F)c(-c2ncnc3cc(N4CCOCC4)ccc23)c1)c1nccn2cccc12 (stereo not shown) [Example 356, [4-Fluoro-3-(7-morpholin-4-yl-quinazolin-4-yl)-phenyl]pyrrolo[1,2-a]-pyrazin-1-ylmethanol]
- IC50 [1]: < 0.5 µM

Compound: Cn1c(C(O)c2cc(-c3ncnc4cc(N5CCOCC5)ccc34)c(F)cc2Cl)cccc1=O (stereo not shown) [Example 382, 6-{[2-Chloro-4-fluoro-5-(7-morpholin-4-yl-quinazolin-4-yl)-phenyl]hydroxy-methyl}-1-methyl-1H-pyridin-2-one (Ena 2)]
- IC50 [2]: 0.5 to 5 µM

Compound: Cc1nccnc1C(O)c1ccc(F)c(-c2ncnc3cc(N4CCOCC4)ccc23)c1 (stereo not shown) [Example 78, [4-Fluoro-3-(7-morpholin-4-yl-quinazolin-4-yl)phenyl]-(3-methylpyrazin-2-yl)-methanol]
- IC50 [3]: < 0.5 µM

Compound: Oc1ncnc(C(O)c2cc(-c3ncnc4cc(N5CCOCC5)ccc34)ccc2Cl)c1Cl (stereo not shown) [Example 330, 5-Chloro-6-{[2-chloro-5-(7-morpholin-4-yl-quinazolin-4-yl)-phenyl]hydroxy-methyl}pyrimidin-4-ol]
- IC50 [1]: 10 to 30 µM

Compound: O=c1ccc(C(O)c2ccc(F)c(-c3ncnc4cc(N5CCOCC5)ccc34)c2)n[nH]1 (stereo not shown) [Example 76, 6-{[4-Fluoro-3-(7-morpholin-4-yl-quinazolin-4-yl)phenyl]-hydroxymethyl}-2H-pyridazin-3-one]
- IC50 [3]: 0.5 to 5 µM

Compound: Cc1nccnc1C(C(N)=O)c1ccc(F)c(-c2ncnc3cc(N4CCOCC4)ccc23)c1 (stereo not shown) [Example 327, 2-[4-Fluoro-3-(7-morpholin-4-yl-quinazolin-4-yl)-phenyl]-2-(3-methyl-pyrazin-2-yl)-acetamide]
- IC50 [1]: 10 to 30 µM

Compound: NC(=O)C(c1cc(-c2ncnc3cc(N4CCOCC4)ccc23)c(F)cc1Cl)c1ncnn2cccc12 (stereo not shown) [Example 309, 2-[2-Chloro-4-fluoro-5-(7-morpholin-4-yl-quinazolin-4-yl)-phenyl]-2-[3H-pyrrolo[2,1-f][1,2,4]-triazin-(4E)-ylidene]-acetamide]
- IC50 [1]: 10 to 30 µM

Compound: COc1ccc(C(C(N)=O)c2ccc(F)c(-c3ncnc4cc(N5CCOCC5)ccc34)c2)nn1 (stereo not shown) [Example 308, 2-[4-Fluoro-3-(7-morpholin-4-yl-quinazolin-4-yl)-phenyl]-2-(6-methoxypyridazin-3-yl)acetamide]
- IC50 [1]: 10 to 30 µM

Compound: CNC(=O)c1ccc(C(O)c2cc(-c3ncnc4cc(N5CCOCC5)ccc34)c(F)cc2Cl)nn1 (stereo not shown) [Example 43, 6-{[2-Chloro-4-fluoro-5-(7-morpholin-4-yl-quinazolin-4-yl)phenyl]-hydroxymethyl}-pyridazine-3-carboxylic acid methylamide]
- IC50 [3]: 0.5 to 5 µM

Compound: NC(=O)C(c1cc(-c2ncnc3cc(N4CCOCC4)ccc23)ccc1Cl)c1nccnc1Cl (stereo not shown) [Example 315, 2-[2-Chloro-5-(7-morpholin-4-yl-quinazolin-4-yl)-phenyl]-2-(3-chloro-pyrazin-2-yl)-acetamide]
- IC50 [1]: 10 to 30 µM

Compound: Cc1cncc(C(O)c2ccc(F)c(-c3ncnc4cc(N5CCOCC5)ccc34)c2)n1 (stereo not shown) [Example 296, [4-Fluoro-3-(7-morpholin-4-yl-quinazolin-4-yl)-phenyl]-(6-methyl-pyrazin-2-yl)-methanol]
- IC50 [1]: 5 to 10 µM

Compound: NC(=O)C(c1ccc(F)c(-c2ncnc3cc(N4CCOCC4)ccc23)c1)c1c(F)cncc1F (stereo not shown) [Example 321, 2-(3,5-Difluoro-pyridin-4-yl)-2-[4-fluoro-3-(7-morpholin-4-yl-quinazolin-4-yl)-phenyl]acetamide]
- IC50 [1]: 0.5 to 5 µM

Compound: Cc1nccnc1C(O)c1cc(-c2ncnc3cc(N4CCOCC4)ccc23)ccc1Cl (stereo not shown) [Example 428, [2-Chloro-5-(7-morpholin-4-yl-quinazolin-4-yl)-phenyl]-(3-methyl-pyrazin-2-yl)-methanol]
- IC50 [4]: < 0.5 µM

Compound: OC(c1ccc(F)c(-c2ncnc3cc(N4CCOCC4)ccc23)c1)c1ccc(OC(F)F)nn1 (stereo not shown) [Example 121, (6-Difluoro-methoxy-pyridazin-3-yl)-[4-fluoro-3-(7-morpholin-4-yl-quinazolin-4-yl)-phenyl]methanol]
- IC50 (Homo sapiens, HCT-116, phospho-serine 2056 DNA-PK, bleomycin-treated HCT116 cells, class symbols A-D): 0.5 to 5 µM

Compound: Cn1c(C(O)c2cc(-c3ncnc4cc(N5CCOCC5)ccc34)c(F)cc2F)cccc1=O (stereo not shown) [Example 380, 6-{[2,4-Difluoro-5-(7-morpholin-4-yl-quinazolin-4-yl)-phenyl]hydroxy-methyl}-1-methyl-1H-pyridin-2-one (Ena 2)]
- IC50 [2]: 0.5 to 5 µM

Compound: O=c1ccc(C(O)c2cc(-c3ncnc4cc(N5CCOCC5)ccc34)c(F)cc2Cl)n[nH]1 (stereo not shown) [Example 92, 3-[[2-Chloro-4-fluoro-5-(7-morpholino-quinazolin-4-yl)phenyl]-hydroxymethyl]-1H-pyridazin-6-one]
- IC50 [3]: < 0.5 µM

Compound: COc1nccnc1C(C(N)=O)c1ccc(F)c(-c2ncnc3cc(N4CCOCC4)ccc23)c1 (stereo not shown) [Example 305, 2-[4-Fluoro-3-(7-morpholin-4-yl-quinazolin-4-yl)-phenyl]-2-(3-methoxy-pyrazin-2-yl)acetamide]
- IC50 [1]: 5 to 10 µM

Compound: Cc1cnc(C(O)c2ccc(F)c(-c3ncnc4cc(N5CCOCC5)ccc34)c2)c(C)n1 (stereo not shown) [Example 354, (3,5-Dimethyl-pyrazin-2-yl)-[4-fluoro-3-(7-morpholin-4-yl-quinazolin-4-yl)-phenyl]methanol]
- IC50 [1]: < 0.5 µM
